Reference: patent publication US11702422B2, “Imidazopyridazines as modulators of IL-17” (Janssen Pharmaceutica NV, priority 2020, dated 2023)

Assays:
[1] = tested on: IL-17A-induced G-CSF production in human normal keratinocyte (NHK); experiment: NHK Assay: IL-17A-induced G-CSF production in human normal keratinocytes; assay type: cell-based; settings: Homo sapiens, Keratinocyte, 24 h, adult normal human keratinocytes, IL-17A 5 ng/mL, simple average if tested more than once
Method in brief: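 HTRF read-out of supernatant G-CSF, quantified from a standard curve, gave IC50 values. Adult keratinocytes, 3000-4000 cells/well, received human IL-17A (5 ng/mL final) pre-mixed 1 h at rt with compound, in 5% FBS and 0.2% DMSO, 24 h at 37° C.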

[2] = target: IL-17A(FLAG-Tagged): IL-17RA(His-Tagged) (Homo sapiens, UniProt Q16552, K93Q); experiment: IL-17A(FLAG-Tagged): IL-17RA(His-Tagged) Binding Disruption Eu-HTRF Assay; settings: IL-17A/IL-17RA binding disruption, simple average if tested more than once
Method in brief: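 IC50 comes from a one-site competition fit of the HTRF 665/620 nm ratio. Compound dilutions (2-fold, 22 points) were held 1 h rt with FLAG-tagged IL-17A dimer, then His-tagged IL-17RA plus Eu-cryptate anti-FLAG and D2 anti-His antibodies were added for 2 h rt.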

Sequence of UniProt Q16552 (Q16552 with tags, fused parts or gaps K93Q): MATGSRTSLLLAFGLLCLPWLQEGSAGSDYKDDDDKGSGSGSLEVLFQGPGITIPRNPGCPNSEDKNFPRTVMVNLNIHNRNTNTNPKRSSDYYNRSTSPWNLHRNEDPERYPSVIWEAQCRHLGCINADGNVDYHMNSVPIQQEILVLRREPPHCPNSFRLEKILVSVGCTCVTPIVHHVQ

## Cc1cnccc1C(=O)N[C@H](c1cn2ncc([C@H](NC(=O)CCC(F)(F)F)C3CC3)cc2n1)C1CCC(F)(F)CC1 [Example 214, N—((S)-(7-((R)-Cyclopropyl(4,4,4-trifluorobutanamido)methyl)imidazo[1,2-b]pyridazin-2-yl)(4,4-difluorocyclohexyl)methyl)-3-methylisonicotinamide]
[1]
  IC50: > 20000 nM
[2]
  IC50: 2900 nM

## COc1cncc(C(=O)N[C@H](c2cn3ncc([C@H](NC(=O)CCC(F)(F)F)C4CC4)cc3n2)C2CCC(F)(F)CC2)n1 [Example 215, N—((S)-(7-((R)-Cyclopropyl(4,4,4-trifluorobutanamido)methyl)imidazo[1,2-b]pyridazin-2-yl)(4,4-difluorocyclohexyl)methyl)-6-methoxypyrazine-2-carboxamide]
[1]
  IC50: > 20000 nM
[2]
  IC50: 2000 nM

## O=C(CCC(F)(F)F)N[C@@H](c1cnn2cc([C@@H](NC(=O)c3ccnc(C4CC4)n3)C3CCC(F)(F)CC3)nc2c1)C1CC1 [Example 216, 2-Cyclopropyl-N—((S)-(7-((R)-cyclopropyl(4,4,4-trifluorobutanamido)methyl)imidazo[1,2-b]pyridazin-2-yl)(4,4-difluorocyclohexyl)methyl)pyrimidine-4-carboxamide]
[1]
  IC50: > 20000 nM
[2]
  IC50: 1600 nM

## O=C(CCC(F)(F)F)N[C@@H](c1cnn2cc([C@@H](NC(=O)c3nccc(C(F)(F)F)n3)C3CCC(F)(F)CC3)nc2c1)C1CC1 [Example 217, N—((S)-(7-((R)-Cyclopropyl(4,4,4-trifluorobutanamido)methyl)imidazo[1,2-b]pyridazin-2-yl)(4,4-difluorocyclohexyl)methyl)-4-(trifluoromethyl)pyrimidine-2-carboxamide]
[1]
  IC50: > 20000 nM
[2]
  IC50: 4600 nM

## Cc1cc(C(=O)N[C@H](c2cn3ncc([C@H](NC(=O)CCC(F)(F)F)C4CC4)cc3n2)C2CCC(F)(F)CC2)ncn1 [Example 218, N—((S)-(7-((R)-Cyclopropyl(4,4,4-trifluorobutanamido)methyl)imidazo[1,2-b]pyridazin-2-yl)(4,4-difluorocyclohexyl)methyl)-6-methylpyrimidine-4-carboxamide]
[1]
  IC50: > 20000 nM
[2]
  IC50: 2000 nM

## Cc1nccnc1C(=O)N[C@H](c1cn2ncc([C@H](NC(=O)CCC(F)(F)F)C3CC3)cc2n1)C1CCC(F)(F)CC1 [Example 219, N—((S)-(7-((R)-Cyclopropyl(4,4,4-trifluorobutanamido)methyl)imidazo[1,2-b]pyridazin-2-yl)(4,4-difluorocyclohexyl)methyl)-3-methylpyrazine-2-carboxamide]
[1]
  IC50: > 20000 nM
[2]
  IC50: 2100 nM

## Cc1cncc(C(=O)N[C@H](c2cn3ncc([C@H](NC(=O)CCC(F)(F)F)C4CC4)cc3n2)C2CCC(F)(F)CC2)n1 [Example 220, N—((S)-(7-((R)-Cyclopropyl(4,4,4-trifluorobutanamido)methyl)imidazo[1,2-b]pyridazin-2-yl)(4,4-difluorocyclohexyl)methyl)-6-methylpyrazine-2-carboxamide]
[1]
  IC50: > 20000 nM
[2]
  IC50: 15000 nM

## O=C(CCC(F)(F)F)N[C@@H](c1cnn2cc([C@@H](NC(=O)c3cccc(C(F)(F)F)n3)C3CCC(F)(F)CC3)nc2c1)C1CC1 [Example 221, N—((S)-(7-((R)-Cyclopropyl(4,4,4-trifluorobutanamido)methyl)imidazo[1,2-b]pyridazin-2-yl)(4,4-difluorocyclohexyl)methyl)-6-(trifluoromethyl)picolinamide]
[1]
  IC50: > 20000 nM
[2]
  IC50: 16000 nM

## Cc1ncncc1C(=O)N[C@H](c1cn2ncc([C@H](NC(=O)CCC(F)(F)F)C3CC3)cc2n1)C1CCC(F)(F)CC1 [Example 222, N—((S)-(7-((R)-Cyclopropyl(4,4,4-trifluorobutanamido)methyl)imidazo[1,2-b]pyridazin-2-yl)(4,4-difluorocyclohexyl)methyl)-4-methylpyrimidine-5-carboxamide]
[1]
  IC50: > 20000 nM
[2]
  IC50: 1000 nM

## O=C(CCC(F)(F)F)N[C@@H](c1cnn2cc([C@@H](NC(=O)c3cnccn3)C3CCC(F)(F)CC3)nc2c1)C1CC1 [Example 223, N—((S)-(7-((R)-Cyclopropyl(4,4,4-trifluorobutanamido)methyl)imidazo[1,2-b]pyridazin-2-yl)(4,4-difluorocyclohexyl)methyl)pyrazine-2-carboxamide]
[1]
  IC50: > 20000 nM
[2]
  IC50: 2900 nM

## Cc1cccc(C(=O)N[C@H](c2cn3ncc([C@H](NC(=O)CCC(F)(F)F)C4CC4)cc3n2)C2CCC(F)(F)CC2)n1 [Example 224, N—((S)-(7-((R)-Cyclopropyl(4,4,4-trifluorobutanamido)methyl)imidazo[1,2-b]pyridazin-2-yl)(4,4-difluorocyclohexyl)methyl)-6-methylpicolinamide]
[1]
  IC50: > 20000 nM
[2]
  IC50: 1700 nM

## N#Cc1ccncc1C(=O)N[C@H](c1cn2ncc([C@H](NC(=O)CCC(F)(F)F)C3CC3)cc2n1)C1CCC(F)(F)CC1 [Example 225, 4-Cyano-N—((S)-(7-((R)-cyclopropyl(4,4,4-trifluorobutanamido)methyl)imidazo[1,2-b]pyridazin-2-yl)(4,4-difluorocyclohexyl)methyl)nicotinamide]
[1]
  IC50: > 20000 nM
[2]
  IC50: 9500 nM

## COc1cccc(C(=O)N[C@H](c2cn3ncc([C@H](NC(=O)CCC(F)(F)F)C4CC4)cc3n2)C2CCC(F)(F)CC2)n1 [Example 226, N—((S)-(7-((R)-Cyclopropyl(4,4,4-trifluorobutanamido)methyl)imidazo[1,2-b]pyridazin-2-yl)(4,4-difluorocyclohexyl)methyl)-6-methoxypicolinamide]
[1]
  IC50: > 20000 nM
[2]
  IC50: 2500 nM

## CC(C)Oc1cccc(C(=O)N[C@H](c2cn3ncc([C@H](NC(=O)CCC(F)(F)F)C4CC4)cc3n2)C2CCC(F)(F)CC2)n1 [Example 227, N—((S)-(7-((R)-Cyclopropyl(4,4,4-trifluorobutanamido)methyl)imidazo[1,2-b]pyridazin-2-yl)(4,4-difluorocyclohexyl)methyl)-6-isopropoxypicolinamide]
[1]
  IC50: 20000 nM
[2]
  IC50: 900 nM

## CCc1cccc(C(=O)N[C@H](c2cn3ncc([C@H](NC(=O)CCC(F)(F)F)C4CC4)cc3n2)C2CCC(F)(F)CC2)n1 [Example 228, N—((S)-(7-((R)-Cyclopropyl(4,4,4-trifluorobutanamido)methyl)imidazo[1,2-b]pyridazin-2-yl)(4,4-difluorocyclohexyl)methyl)-6-ethylpicolinamide]
[1]
  IC50: > 20000 nM
[2]
  IC50: 1000 nM

## O=C(CCC(F)(F)F)N[C@@H](c1cnn2cc([C@@H](NC(=O)c3cccc(C(F)F)n3)C3CCC(F)(F)CC3)nc2c1)C1CC1 [Example 229, N—((S)-(7-((R)-Cyclopropyl(4,4,4-trifluorobutanamido)methyl)imidazo[1,2-b]pyridazin-2-yl)(4,4-difluorocyclohexyl)methyl)-6-(difluoromethyl)picolinamide]
[1]
  IC50: > 20000 nM
[2]
  IC50: 1200 nM

## CC(F)(F)c1cccc(C(=O)N[C@H](c2cn3ncc([C@H](NC(=O)CCC(F)(F)F)C4CC4)cc3n2)C2CCC(F)(F)CC2)n1 [Example 230, N—((S)-(7-((R)-Cyclopropyl(4,4,4-trifluorobutanamido)methyl)imidazo[1,2-b]pyridazin-2-yl)(4,4-difluorocyclohexyl)methyl)-6-(1,1-difluoroethyl)picolinamide]
[1]
  IC50: > 20000 nM
[2]
  IC50: 2000 nM

## O=C(CCC(F)(F)F)N[C@@H](c1cnn2cc([C@@H](NC(=O)c3ccccc3CC(F)(F)F)C3CCC(F)(F)CC3)nc2c1)C1CC1 [Example 231, N—((S)-(7-((R)-Cyclopropyl(4,4,4-trifluorobutanamido)methyl)imidazo[1,2-b]pyridazin-2-yl)(4,4-difluorocyclohexyl)methyl)-2-(2,2,2-trifluoroethyl)benzamide]
[1]
  IC50: > 20000 nM
[2]
  IC50: 320 nM

## CC(C)c1oncc1C(=O)N[C@H](c1cn2ncc([C@H](NC(=O)CCC(F)(F)F)C3CC3)cc2n1)C1CCC(F)(F)CC1 [Example 232, N—((S)-(7-((R)-Cyclopropyl(4,4,4-trifluorobutanamido)methyl)imidazo[1,2-b]pyridazin-2-yl)(4,4-difluorocyclohexyl)methyl)-5-isopropylisoxazole-4-carboxamide]
[1]
  IC50: 65 nM
[2]
  IC50: 43 nM

## [2H]C([2H])([2H])C([2H])([2H])n1nccc1C(=O)N[C@H](c1cn2ncc([C@H](NC(=O)CCC(F)(F)F)C3CC3)cc2n1)C1CCC(F)(F)CC1 [Example 233, N—((S)-(7-((R)-Cyclopropyl(4,4,4-trifluorobutanamido)methyl)imidazo[1,2-b]pyridazin-2-yl)(4,4-difluorocyclohexyl)methyl)-1-(ethyl-d5)-1H-pyrazole-5-carboxamide]
[1]
  IC50: 51 nM
[2]
  IC50: 47 nM

## [2H]C([2H])([2H])C([2H])([2H])n1nccc1C(=O)N[C@H](c1cn2ncc([C@H](NC(=O)CC3CC(F)(F)C3)C3CC3)cc2n1)C1CCC(F)(F)CC1 [Example 234, N—((S)-(7-((R)-Cyclopropyl(2-(3,3-difluorocyclobutyl)acetamido)methyl)imidazo[1,2-b]pyridazin-2-yl)(4,4-difluorocyclohexyl)methyl)-1-(ethyl-d5)-1H-pyrazole-5-carboxamide]
[1]
  IC50: 52 nM
[2]
  IC50: 85 nM

## O=C(CCC(F)(F)F)N[C@@H](c1cnn2cc([C@@H](NC(=O)c3conc3C3COC3)C3CCC(F)(F)CC3)nc2c1)C1CC1 [Example 235, N—((S)-(7-((R)-Cyclopropyl(4,4,4-trifluorobutanamido)methyl)imidazo[1,2-b]pyridazin-2-yl)(4,4-difluorocyclohexyl)methyl)-3-(oxetan-3-yl)isoxazole-4-carboxamide]
[1]
  IC50: 220 nM
[2]
  IC50: 100 nM
